Results: patent US10562912B2 (C&C Research Laboratories, priority 2013, dated 2020)

Columns and labels:
Assay type in all cases: cell-based
MDA-MB-231 = assay: Cell growth inhibition assay, breast cancer cell line MDA-MB-231; details: Homo sapiens; MDA-MB-231 breast cancer cell line, 5,000 cells/well
LNCaP = assay: Cell growth inhibition assay, prostate cancer cell line LNCaP (medium with 10 ng/mL IL-6); details: Homo sapiens, medium supplemented with 10 ng/mL of IL-6, 10,000 cells/well
STAT3 = target: T1, STAT3 (Homo sapiens, UniProt P40763); assay: STAT3 reporter gene assay (luciferase), LNCaP stable cell line (pSTAT3-TA-luc), IL-6 stimulation
T1 construct: plasmid pSTAT3-TA-luc), which contains a stably operating STAT3 promoter; endogenous in cells
Method in brief: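 Cytotoxicity was run on a duplicate plate with CellTiter-Glo, while the other plate gave luciferase read-outs from lysed LNCaP pSTAT3-TA-luc reporter cells. Cells were treated with graded compound concentrations plus IL-6 (10 ng/mL final) for 24–48 h in 3% DCC-FBS medium. Unstimulated and stimulated wells served as negative and positive controls.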

T1 sequence (P40763 whole entry): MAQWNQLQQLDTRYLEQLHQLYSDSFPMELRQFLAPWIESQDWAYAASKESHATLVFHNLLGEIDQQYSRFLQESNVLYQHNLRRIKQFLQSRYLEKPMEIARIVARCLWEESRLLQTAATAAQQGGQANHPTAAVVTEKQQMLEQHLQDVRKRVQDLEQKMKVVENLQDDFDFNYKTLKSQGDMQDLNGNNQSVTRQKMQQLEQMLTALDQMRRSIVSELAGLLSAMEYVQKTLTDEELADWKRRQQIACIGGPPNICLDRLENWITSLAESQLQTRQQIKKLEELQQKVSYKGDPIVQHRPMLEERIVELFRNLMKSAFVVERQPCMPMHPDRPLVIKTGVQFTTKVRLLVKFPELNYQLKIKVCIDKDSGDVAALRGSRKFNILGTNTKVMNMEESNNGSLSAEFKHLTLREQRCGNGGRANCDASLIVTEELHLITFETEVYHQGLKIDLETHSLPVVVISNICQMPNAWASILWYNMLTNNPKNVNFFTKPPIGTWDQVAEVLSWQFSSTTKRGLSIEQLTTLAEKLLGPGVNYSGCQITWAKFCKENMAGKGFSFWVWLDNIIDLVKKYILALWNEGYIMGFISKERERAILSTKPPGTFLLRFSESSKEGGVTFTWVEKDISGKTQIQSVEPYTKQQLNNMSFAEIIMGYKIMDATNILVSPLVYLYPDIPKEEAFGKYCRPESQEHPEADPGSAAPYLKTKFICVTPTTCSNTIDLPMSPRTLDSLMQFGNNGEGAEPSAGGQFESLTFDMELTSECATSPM

| IC50 (MDA-MB-231) [µM] | IC50 (LNCaP) [µM] | IC50 (STAT3) [µM] | SMILES |
| --- | --- | --- | --- |
| > 10 | > 10 | > 10 | CS(=O)(=O)c1ccc2cc(C(=O)Nc3cccc(-c4ccc(F)cc4F)c3)[nH]c2c1 [Example 240, N-(2′,4′-difluoro-[1,1′-biphenyl]-3-yl)-6-(methylsulfonyl)-1H-indole-2-carboxamide] |
| 0.38 | 1.3 | 0.46 | CS(=O)(=O)Nc1ccc2cc(C(=O)Nc3cccc(C4(c5ccc(F)cc5)CC4)c3)[nH]c2c1 [Example 425, N-(3-(1-(4-fluorophenyl)cyclopropyl)phenyl)-6-(methylsulfonamido)-1H-indole-2-carboxamide] |
| 0.049 | 0.8 | 0.1 | COc1cccc(C(C)(C)c2cccc(NC(=O)c3cc4cc(NS(C)(=O)=O)ccc4s3)c2)c1 [Example 38, N-(3-(2-(3-methoxyphenyl)propan-2-yl)phenyl)-5-(methylsulfonamido)benzo[b]thiophene-2-carboxamide] |
| 2.9 | > 10 | 6.5 | CS(=O)(=O)Nc1ccc2cc(C(=O)Nc3cccc(C(=O)c4ccccc4)c3)[nH]c2c1 [Example 434, N-(3-benzoylphenyl)-6-(methylsulfonamido)-1H-indole-2-carboxamide] |
| 1 | 4.7 | 0.61 | CC(C)(c1ccc(F)cc1)c1cccc(NC(=O)c2cc3cc(NS(C)(=O)=O)ccc3o2)c1 [Example 28, N-(3-(2-(4-fluorophenyl)propan-2-yl)phenyl)-5-(methylsulfonamido)benzofuran-2-carboxamide] |
| 2.1 | 4.1 | 2.3 | CNS(=O)(=O)Nc1ccc2cc(C(=O)Nc3cccc(-c4ccccc4C(F)(F)F)c3)[nH]c2c1 [Example 269] |
| > 10 | 8.3 | > 10 | O=C(Nc1cccc(-c2ccc(F)cc2F)c1)c1cc2cc(OC(F)(F)F)ccc2[nH]1 [Example 239, N-(2′,4′-difluoro-[1,1′-biphenyl]-3-yl)-5-(trifluoromethoxy)-1H-indole-2-carboxamide] |
| 6.4 | > 10 | 8.9 | COc1cc(NS(C)(=O)=O)cc2cc(C(=O)Nc3cccc(C(C)(C)c4ccc(F)cc4)c3)oc12 [Example 113, N-(3-(2-(4-fluorophenyl)propan-2-yl)phenyl)-7-methoxy-5-(methylsulfonamido)benzofuran-2-carboxamide] |
| 0.84 | 4.8 | 1.1 | CNS(=O)(=O)Nc1ccc2cc(C(=O)Nc3cc(Br)cc(-c4ccc(F)cc4F)c3)[nH]c2c1 [Example 307, N-(5-bromo-2′,4′-difluoro-[1,1′-biphenyl]-3-yl)-6-((N-methylsulfamoyl)amino)-1H-indole-2-carboxamide] |
| 0.29 | 1.2 | 0.42 | C#Cc1cc(NC(=O)c2cc3ccc(NS(C)(=O)=O)cc3[nH]2)cc(C(C)(C)c2ccc(F)cc2)c1 [Example 107, N-(3-ethynyl-5-(2-(4-fluorophenyl)propan-2-yl)phenyl)-6-(methylsulfonamido)-1H-indole-2-carboxamide] |
| 0.62 | 3.5 | 0.55 | Cc1c(C(=O)Nc2cccc(C(C)(C)c3ccc(F)cc3)c2)sc2cc(NS(C)(=O)=O)ccc12 [Example 51, N-(3-(2-(4-fluorophenyl)propan-2-yl)phenyl)-3-methyl-6-(methylsulfonamido)benzo[b]thiophene-2-carboxamide] |
| > 10 | > 10 | 8.1 | CNC(=O)c1cc(NC(=O)c2cc3ccc(NS(C)(=O)=O)cc3[nH]2)cc(-c2ccc(F)cc2F)c1 [Example 318, N-(2′,4′-difluoro-5-(methylcarbamoyl)-[1,1′-biphenyl]-3-yl)-6-(methylsulfonamido)-1H-indole-2-carboxamide] |
| 2.6 | 4.9 | 1.4 | CC(=O)c1cc(NC(=O)c2cc3ccc(NS(C)(=O)=O)cc3[nH]2)cc(-c2ccc(F)cc2F)c1 [Example 245, N-(5-acetyl-2′,4′-difluoro-[1,1′-biphenyl]-3-yl)-6-(methylsulfonamido)-1H-indole-2-carboxamide] |
| 2.4 | 7.6 | 0.82 | CS(=O)(=O)Nc1ccc2cc(C(=O)Nc3cc(-c4ccc[nH]4)cc(-c4ccc(F)cc4F)c3)[nH]c2c1 [Example 352, N-(2′,4′-difluoro-5-(1H-pyrrol-2-yl)-[1,1′-biphenyl]-3-yl)-6-(methylsulfonamido)-1H-indole-2-carboxamide] |
| 3.5 | 9.2 | 8.4 | CS(=O)(=O)Nc1ccc2cc(C(=O)Nc3cc(-c4ccc(F)cc4F)c4cn[nH]c4c3)[nH]c2c1 [Example 246, N-(4-(2,4-difluorophenyl)-1H-indazol-6-yl)-6-(methylsulfonamido)-1H-indole-2-carboxamide] |
| 2.6 | 9 | 6 | C#Cc1cccc(S(=O)(=O)c2cccc(NC(=O)c3cc4ccc(NS(C)(=O)=O)cc4[nH]3)c2)c1 [Example 416] |
| 0.55 | 2.4 | 0.27 | CS(=O)(=O)Nc1ccc2oc(C(=O)Nc3cccc(-c4ccc(F)cc4F)c3)cc2c1 [Example 238, N-(2′,4′-difluoro-[1,1′-biphenyl]-3-yl)-5-(methylsulfonamido)benzofuran-2-carboxamide] |
| 0.41 | 2.7 | 0.31 | COc1cc2cc(C(=O)Nc3cccc(-c4ccc(F)cc4F)c3)[nH]c2cc1NS(C)(=O)=O [Example 236, N-(2′,4′-difluoro-[1,1′-biphenyl]-3-yl)-5-methoxy-6-(methylsulfonamido)-1H-indole-2-carboxamide] |
| 1 | 6.7 | 5.7 | Cc1c(C(=O)Nc2cc(Br)cc(-c3ccc(F)cc3F)c2)sc2ccc(NS(C)(=O)=O)cc12 [Example 311, N-(5-bromo-2′,4′-difluoro-[1,1′-biphenyl]-3-yl)-3-methyl-5-(methylsulfonamido)benzo[b]thiophene-2-carboxamide] |
| 1.4 | 7.8 | 0.9 | CS(=O)(=O)Nc1ccc2cc(C(=O)Nc3cc(-c4ccc(F)cc4F)cc(N4CCCCC4)c3)[nH]c2c1 [Example 371, N-(2′,4′-difluoro-5-(piperidin-1-yl)-[1,1′-biphenyl]-3-yl)-6-(methylsulfonamido)-1H-indole-2-carboxamide] |
| 0.022 | 0.07 | 0.026 | CCC(CC)(c1ccc(F)cc1)c1cc(Br)cc(NC(=O)c2cc3cc(NS(C)(=O)=O)ccc3s2)c1 [Example 53, N-(3-bromo-5-(3-(4-fluorophenyl)pentan-3-yl)phenyl)-5-(methylsulfonamido)benzo[b]thiophene-2-carboxamide] |
| 0.54 | 2.1 | 0.76 | CS(=O)(=O)Nc1ccc2cc(C(=O)Nc3cccc(C4(c5ccccc5)CC4)c3)[nH]c2c1 [Example 422, 6-(methylsulfonamido)-N-(3-(1-phenylcyclopropyl)phenyl)-1H-indole-2-carboxamide] |
| 1.8 | > 10 | > 10 | CS(=O)(=O)Nc1ccc2cc(C(=O)Nc3cc(-c4cncnc4)cc(-c4ccc(F)cc4F)c3)[nH]c2c1 [Example 360, N-(2′,4′-difluoro-5-(pyrimidin-5-yl)-[1,1′-biphenyl]-3-yl)-6-(methylsulfonamido)-1H-indole-2-carboxamide] |
